Experimental data as given in US20220331348A1, “METHOD OF PREPARING PENTACYCLIC TRITERPENOID SAPONINS AND DRUG COMPOSITION” (CHINA PHARMACEUTICAL UNIVERSITY, priority 2019, published 2022).
Marks after values point to notes of the source that are not given here.

Columns and labels:
[1] = tested on: high fat diet induced NASH model rats; assay: High fat diet (HFD) induced NASH rat model; type: in vivo
Description: Animal: 32 SD male rats of SPF level with 6 weeks old and 220 g were purchased from Beijing Vital River Laboratory Animal Technology Co., Ltd. All the animals maintained 12 h alternative circadian rhythm with free access to food.
Reagent: the ginsenoside Ro (I) was purchased from Shanghai Boka Chemistry Technology Co., Ltd; obeticholic acid (OCA) was purchased from Jiangsu Vcare PharmaTech Co., Ltd; high fat diets were purchased from Research Diets (D12492, 60 kcal %); and standard feeds were purchased from Research Diets (D12450B, 10 kcal %).
The rats were randomly divided into 4 groups based on the weight: a control group (CHOW), a high fat diet model group (HFD), a positive drug obeticholic acid (OCA, 5 mg/Kg) group (HFD+OCA) and a ginsenoside Ro (Ro for short, 5 mg/kg) group (HFD+Ro). The control group was fed with the standard feeds and drank water normally; and the rest groups were fed with the high fat diets, drank 10% aqueous sucrose solution for replacing the water and were modeled for 20 weeks.
After 20 weeks, the control group and the high fat diet model group were given with a CMC-Na solution with the volume fraction of 0.5% intragastrically every day, the HFD+OCA group was given with the obeticholic acid (5 mg/Kg) intragastrically every day, and the HFD+Ro was given with the ginsenoside Ro (5 mg/Kg) intragastrically every day. Administration was conducted for 8 weeks, during which, the control group was given with the standard feeds and drank the water normally, and the rest three groups were given with the high fat diets and drank 10% aqueous sucrose solution. The rats in each group were weighed every day, weights, hairs, feces and activity conditions were carefully observed and recorded.
The rats were deprived of food but not water for 12 h in advance; and the next morning, blood was taken from eye sockets, the rats were sacrificed, and livers were harvested. Right liver lobule tissues were fixed with 4% paraformaldehyde for HE stained slicing. A part of liver tissues were divided into 3 parts, which were snap-frozen in liquid nitrogen for subsequent detection of other indexes.
Whole blood was left to still standing for 2 h at room temperature, centrifugation was conducted for 15 min at 3000 rpm, and a serum was collected. 100 Mg of liver tissues were taken and homogenized with 0.9 mL of precooled normal saline, a homogenate was centrifuged for 15 min at 4° C. and 3000 rpm, and a supernatant was taken. Both of the serum and the supernatant were sent to Pathologic Department of Hospital of Integrated Traditional Chinese and Western Medicine in Jiangsu Province for determination of levels of triglyceride (TG), total cholesterol (TC), low density lipoprotein cholesterin (LDL-c) and high density lipoprotein cholesterol (HDL-c) in the serum and levels of the TG and the TC in the supernatant of the homogenate of the liver tissues with the full-automatic biochemical analyzer.
Pretreated tissues were sent to Google Biotechnology Co., Ltd for preparing HE stained slices and oil red stained slices.
Liver tissues preserved at −80° C. were put in the liquid nitrogen, about 10 mg of the liver tissues were quickly dissected out, 500 μL of precooled tissue lysate was added, and the tissues were homogenized with a homogenizer and then left to lyse on ice for 30 min; and centrifugation was conducted for 15min at 4° C. and 12000 rpm, […] of a supernatant was sucked to a clean EP tube, […] of the supernatant was taken for BCA protein quantification, […] of 5*loading buffer was added in the rest protein supernatant for denaturing by boiling, SDS-PAGE electrophoresis was conducted subsequently, the proteins were transferred onto a PVDF membrane, then incubation and elution of a relevant antibody were conducted, and finally, a chemiluminescence apparatus was employed for imaging analysis.

[2] = tested on: ulcerative colitis model mice induced by DSS; assay: Dextran sulphate sodium salt (DSS) induced ulcerative colitis model mice; type: in vivo, mouse
Description: C57BL/6 male mice with 6-8 weeks old were selected; a control group was fed with purified water; and a model group, a treatment group and a positive control group were fed with purified water containing 2% dextran sulphate sodium salt (DSS) (36000-50000 M.Wt) for 7 days and then with the purified water for 3 days, and drug intervention was conducted at the same time. The mice in the control group and the model group were orally administered with carboxymethyl cellulose sodium as a placebo, the mice in the treatment group were orally administered with the ziyuglycoside II (purchased from Shanghai Boka Chemistry Technology Co., Ltd) (with a dosage of 5 mg/kg), and the mice in the positive control group were orally administered with 5-aminosalicylic acid as a clinical drug (5-ASA, purchased from Shanghai Sangon Biological Engineering Co., Ltd) (with a dosage of 100 mg/kg). In the administration process, weight changes, feces characters and hematochezia conditions of the mice were observed and recorded every day and were scored, and disease activity indexes were calculated (Disease activity index, DAI).
A scoring rule and a calculation method were as follows: DAT=(weight score+diarrhea score+occult blood score)/3, wherein weight score: 0 (weight gained or unchanged), 1 (weight lost by 1-5%), 2 (weight lost by 6-10%), 3 (weight lost by 11-15%), 4 (weight lost by 15% or above); diarrhea score: 0 (normal feces), 2 (soft feces), 4 (feces sticking anuses or diarrhea); and occult blood score: 0 (negative occult blood), 2 (positive occult blood), and 4 (visible bleeding). Comparing differences in DAI of various groups, it can be known that the ziyuglycoside II has significant prevention and treatment effects on ulcerative colitis of the mice modeled by the dextran sulphate sodium salt (DSS).
The above mice were sacrificed by cervical dislocation at day 11, colon tissues were harvested, lengths of the colon tissues were measured for statistical summary, and differences in colon length of various groups were compared, from which, the ziyuglycoside II has significant prevention and treatment effect on the ulcerative colitis model mice.
Middle segments, with lengths of about 1 cm, of the colon tissues of the above mice were selected, soaked in a formalin solution for fixing overnight, embedded with paraffin and sliced, and the slices were subjected to HE staining. […] Particularly, compared with the positive drug group, the ziyuglycoside II has the advantage of maintaining a thickness of a muscular layer.
10 mg of proximal rectum segments of the colon tissues of the above mice were selected, PBS was added for homogenization, and centrifugation was conducted for taking a supernate. The supernate was subjected to ELISA detection, and protein quantification was conducted for inflammatory factors TNF-α and IL-lb.
10 mg of colon tissues of the above mice were selected for detection of ROS therein.
When the ulcerative colitis occurs, the inflammatory factors may destruct tight junction between intestinal tracts, and destruction of the tight junction enables functions of mucosal barriers to be lost and accelerates development of the diseases. 5 mg of colon tissues of the above mice were selected for qPCR analysis. […] This hints that the ziyuglycoside II further has the efficacy of increasing the expression level of the tight junction and then protecting a structure of each colon. […] Therefore, the ziyuglycoside II is expected to be useful for preparing the drug for preventing or treating the inflammatory bowel diseases such as the ulcerative colitis.

[3] = HFD NASH rats, summary in words
[4] = HFD induced NASH model rats, 5 mg/Kg, n = 8
[5] = serum of HFD induced NASH model rats, 5 mg/Kg, n = 8
[6] = DSS mice, 5 mg/kg orally, vs model group (FIG. 12 A)
[7] = DSS mice, 5 mg/kg, vs model group (FIG. 12 C)

C[C@@H]1CC[C@]2(C(=O)O)CC[C@]3(C)C(=CC[C@@H]4[C@@]5(C)CC[C@H](O[C@@H]6OC[C@H](O)[C@H](O)[C@H]6O)C(C)(C)[C@@H]5CC[C@]43C)[C@@H]2[C@]1(C)O [(XIII), ziyuglycoside II]
inflammatory responses of the livers [1, 3]: inhibit
lipid accumulation, caused by the high fat diets, of the rat livers [1, 3]: effectively lower
Liver TC [1, 4]: 0.503 ± 0.256** mmoL/gprot
Liver TG [1, 4]: 1.299 ± 0.387** mmoL/gprot
Serum LDL-c [1, 4]: 45.36 ± 5.37** mg/dL
Serum TG [1, 4]: 19.41 ± 4.37* mg/dL
ALT [1, 5]: 69.28 ± 12.33** U/L
AST [1, 5]: 122.16 ± 17.38** U/L
content of the ROS in colon tissues ([2]; DSS mice, 5 mg/kg (FIG. 12 B)): significantly lowered
colon histopathology (HE staining) ([2]; DSS mice, 5 mg/kg orally (FIG. 11)): infiltration of the inflammatory cells is reduced
colon lengths ([2]; DSS mice, 5 mg/kg orally, day 11, vs model group (FIG. 10 B)): significantly larger than those of the model group
DAI scores (disease activity index) ([2]; DSS mice, 5 mg/kg orally, vs model group (FIG. 10 A)): obviously lower than that of the model group
expression level of inflammatory factor IL-1 in colon tissue (ELISA) [2, 6]: significantly lower than those of the model group
expression level of inflammatory factor TNF-α in colon tissue (ELISA) [2, 6]: significantly lower than those of the model group
expression level of Claudin-1 in colon (qPCR) [2, 7]: significantly increased
expression level of Occludin in colon (qPCR) [2, 7]: significantly increased
expression level of ZO-1 in colon (qPCR) [2, 7]: significantly increased
DAI scores of the treatment group ([2]; DSS-induced mice, dose not given, vs model group): obviously lower than those of the model group
